The values that follow come from patent US9487561B2, “Biologically active complex and its preparation” (HAMLET PHARMA AB, priority 2010, dated 2016).

Assay [1] has as its system eIF2α, ATF6, XBP1, CHOP in A549 tumor cells. Description: ER stress response (Western blot, XBP1 splicing PCR, RT-PCR). The format is cell-based, human. The following applies: for effect of ion channel inhibitor on HAMLET-induced eIF2α phosphorylation (ER stress): lung carcinoma cells, 30 minutes pretreatment, HAMLET 21 and 35 μM, 1 hour; for XBP1 splicing: PCR. As for the experimental part:
RNA was prepared with the RNeasy Mini Kit (QIAGEN, Hilden, Germany) and treated with DNAse I (QIAGEN). cDNA was synthesized using the Superscript III first strand RT-PCR system (Invitrogen). PCR of spliced and un-spliced XBP1 was as described (Yoshida et al., 2001, Cell 107: 881-891). Real-time PCR was performed on a Rotorgene 2000 instrument (Corbett Life Science, Sydney, Australia) using TaqMan Gene Expression Assays (Applied BioSystems) CHOP/DDIT3 (Hs01090850), IL6 (Hs00985639), IL8 (Hs00174103) and TNFα (Hs00174128). GAPDH (Hs99999905_m1) was used for normalization.
Equal volumes of lysates were separated by SDS-PAGE on 4-12% Bis-Tris gels (Invitrogen) and blotted onto PVDF membranes. For other Western blots, 200,000 cells were allowed to adhere overnight in a 6-well plate. After HAMLET treatment the cells were washed with PBS and lysed in M-PER lysis buffer (Pierce) containing Complete protease inhibitor cocktail and PhosSTOP phosphatase inhibitor cocktail (both from Roche). The detached cells were collected by centrifugation. The lysates were cleared by centrifugation and protein concentrations were measured using the DC Protein Assay (Bio-Rad Laboratories, Hercules, Calif.). Equal amounts of protein were separated by SDS-PAGE on 4-12% Bis-Tris gels (Invitrogen) and blotted onto PVDF membranes (GE Healthcare). Membranes were saturated with BSA (GAPDH) or nonfat dry milk (phospho-p38, p38, phospho-ERK1/2, ERK1/2) and incubated with anti-p38, anti-phospho-p38, anti-ERK1/2, anti-phospho-(Thr202/Tyr204)-p44/42 (all 1:500-1000, Cell Signaling Technology), anti-ATF6 (1:1000, IMG-273, Imgenex), anti-phospho-eIF2α (Ser51), (1:500, Cell Signaling Technology) or anti-GAPDH (1:3000-5000, Novus Biologicals) antibodies followed by horseradish peroxidase-conjugated anti-rabbit (1:1000, DakoCytomation, Glostrup, Denmark) or anti-mouse (1:40000-50000, Novus Biologicals) antibodies for staining. Bound antibodies were detected with ECL Plus Western Blotting Reagent (GE Healthcare, Little Chalfont, UK) and GelDoc equipment (Bio-Rad Laboratories, Hercules, Calif.). If required, membranes were stripped with Restore Western Blot Stripping Buffer (Pierce, Rockford, Ill.), blocked and reprobed with new antibodies. MAP kinase phosphorylation was analyzed on a Human Phospho-MAPK array (Proteome Profiler Array, R&D Systems) as per the manufacturer's instruction. Band and spot intensities were quantified using ImageJ (Abramoff et al., July 2004, Biophotonics International). Cytokine quantification (IL6, IL8, TNFα) was performed on an […] 1000 immunoassay system (Siemens Diagnostics).
Disturbances in ER Ca^2+ regulation can impair protein folding in the ER by inactivation of Ca^2+ dependent chaperones, such as GRP78 and calreticulin. An increase in unfolded proteins may activate a conserved series of signal-transduction events. Spanning the ER membrane, three ER stress sensors PERK, ATF6 and IRE1 are activated by an overload of unfolded proteins. Upon PERK activation, eIF2α is phosphorylated, shutting down protein translation to avoid unfolded protein overload. To examine if HAMLET disturbs the ER and triggers an unfolded protein response, we analyzed the transcription of ER stress-induced genes.
In general terms: In western blotting, separated proteins are transferred to a membrane and probed.

For assay [2], the system named is lymphoma cells (Jurkat cells). Description: cell death assay with inhibitors. The format is cell-based. Conditions: HAMLET 21-35 μM, three hours. As for the experimental part: GAPDH was used as a loading control.
(§1) Cells were detached from cell culture flasks with versen (0.2 g EDTA in 200 ml H2O and 800 ml PBS), washed with PBS and resuspended in serum-free RPMI-1640. HAMLET dissolved in PBS was incubated with cells (0.5×10^6/ml for A549, A498 and HeLa cells; 1×10^6/ml for Jurkat) at 37° C. FCS was added after 1 hour. Cell death was quantified by trypan blue exclusion (Chroma Gesellschaft Schmid & Co) or by measuring ATP levels (ATPlite Kit, PerkinElmer, Infinite 200, Tecan). Light images were captured using the HOLOMONITOR™ M2 digital holographic microscope (Phase Holographic Imaging AB, Lund, Sweden).
For studies with inhibitors, cells were pretreated for 30 minutes. Inhibitors used were Gadolinium chloride (GdCl3, 100 μM), Barium chloride (BaCl2, 1 mM), Ruthenium red (30 μM), tetrandrine (10 μM) and amiloride (1 mM), all from Sigma Aldrich. For p38 inhibition, SB202190 (20 μM, Sigma Aldrich) or BIRB796 (10 μM, Axon Medchem) dissolved in DMSO was used. The wells were washed twice with PBS and new medium with inhibitor was added. For RNA interference, FlexiTube siRNA Premixes against MAPK11 (SI00606053), MAPK14 (SI00300769) and All Star Negative Control siRNA (SI03650318) from Qiagen was used. A549 forward was transfected using 25 nM final siRNA concentration in 24-well plate. After 48 hours, knockdown was examined by Western blot (anti-p38, 1:1000, Cell Signaling) and RT-PCR (MAPK14, QT00079345, QIAGEN).
To examine if functional ion channels are important for the tumoricidal activity of HAMLET, A549 lung carcinoma cells in suspension were pretreated with the channel inhibitors for 30 minutes and exposed to increasing concentrations of HAMLET for three hours.

Assay [3] relates to lung carcinoma, kidney carcinoma and lymphoma cells. Description: HAMLET-induced change in cell morphology (light microscopy, real-time imaging). Conditions: light microscopy. Type of assay: cell-based. The protocol:
as §1
For live cell imaging, cells were pre-treated with SB202190 for 30 minutes, nuclei were stained with Hoechst 33342 (Invitrogen) and Alexa-Fluor 568-labeled HAMLET (10% labeled HAMLET, Molecular Probes) was added in serum-free medium. FCS was added after 1 hour. Fluorescence was detected with pinhole settings corresponding to 1 airy unit. The cells were kept at 37° C., 5% CO2 and examined unfixed by LSM510 DUO confocal microscopy (Carl Zeiss).
To examine if the HAMLET-induced change in carcinoma cell morphology was modified by the channel inhibitors, lung carcinoma, kidney carcinoma and lymphoma cells were exposed to HAMLET in the presence or absence of ion channel inhibitors and examined by light microscopy (FIG. 2C).
To determine if p38 signaling was involved in cell death, we inhibited p38α and p38β in lung and kidney carcinoma and Jurkat lymphoma cells with two small-molecule p38 inhibitors: SB202190, a highly specific pyridinyl-imidazole inhibitor; and BIRB796, a diaryl urea compound, which bears little structural similarity to SB202190 (Fabian et al., 2005, Nature Biotechnology 23: 329-336), ([…] and FIG. 12B). […] The effect of p38 inhibition on cell death was also observed by real-time confocal imaging of lung carcinoma cells exposed to fluorescently labeled HAMLET.

Another assay deals with Jurkat cells. Description: sodium influx, CoroNa Green Sodium indicator. The format is cell-based. The following applies: 10-minute measurement period. The protocol:
Sodium influx in Jurkat cells was measured by using CoroNa Green Sodium indicator. The fluorescence was quantified every 20-second interval for a 10-minute total measurement period.

Turning to `[Ba+2].[Cl-].[Cl-]` [BaCl2, barium chloride], the “effect of ion channel inhibitor on HAMLET-induced eIF2α phosphorylation (ER stress)” value in assay [1] is “reduced eIF2α phosphorylation”. The “rescue from HAMLET-induced cell death” value in assay [2] is reported as “rescue effect”. For the same molecule, the “effect of ion channel inhibitor on HAMLET-induced change in cell morphology” value in assay [3] is recorded as “maintained their normal morphology”.

On to `NC(N)=NC(=O)c1nc(Cl)c(N)nc1N` [amiloride, 3,5-diamino-6-chloro-N-(diaminomethylene)pyrazine-2-carboxamide], for which the “effect of ion channel inhibitor on HAMLET-induced eIF2α phosphorylation (ER stress)” value in assay [1] was “reduced eIF2α phosphorylation”. Besides, the “rescue from HAMLET-induced cell death” value in assay [2] is “rescue effect”. Further, the “effect of ion channel inhibitor on HAMLET-induced change in cell morphology” value in assay [3] is “maintained their normal morphology”.

`CCCCCCCC/C=C\CCCCCCCC(=O)[O-].[Na+]` [oleate, sodium oleate]: in assay [1], the XBP1 splicing entry is given as “caused splicing of XBP1”. The “sodium influx (fluorescence signal)” value in the assay with Jurkat cells is “did not trigger a sodium flux”.

B1: HAMLET (protein, UniProt P00709 20-142, looked up)
Alpha-lactalbumin: KQFTKCELSQLLKDIDGYGGIALPELICTMFHTSGYDTQAIVENNESTEYGLFQISNKLWCKSSQVPQSRNICDISCDKFLDDDITDDIMCAKKILDIKGIDYWLAHKALCTEKLEQWLCEKL
modifications: oleic acid complex
Consider B1, for which, in assay [1] (3 hours), the “increase of CHOP mRNA” value is given as 30 fold. Further, the eIF2α phosphorylation entry in assay [1] (A549 tumor cells) is “time- (30 minutes) and dose-dependent”. The XBP1 splicing entry in assay [1] is listed as “detected”. For the same molecule, the “ATF6 (Western blotting)” value in assay [1] (three hours of HAMLET treatment) is on record as “increase in cleaved as well as full-length ATF6”. Besides, the “sodium influx (fluorescence signal)” value in the assay on Jurkat cells is given as “immediate increase of fluorescence signal”.
